Assays:
Experiment in all cases: relative viability (nuclei count vs DMSO), 5 days (fraction); higher = more cells survive
Axitinib + Dasatinib = compound: CNC(=O)c1ccccc1Sc1ccc2c(/C=C/c3ccccn3)n[nH]c2c1 [Axitinib] + Cc1nc(Nc2ncc(C(=O)Nc3c(C)cccc3Cl)s2)cc(N2CCN(CCO)CC2)n1 [Dasatinib] (partner 0.075 µM)
In short: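 The day after seeding in 1536-well plates, lung cancer cell lines were treated by pin tool with a single drug, or with a fixed anchor-drug dose together with five library-drug doses (not always all listed) in √10 steps. After 5 days, a combined fix-and-stain solution (final 0.05% Triton X-100, 1% formaldehyde, 1 ug/ml Hoechst) was added. Nuclei counted on 4× images gave relative viability as treated counts over vehicle counts, reported as the median of duplicate plates.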

Pifithrin_alpha = compound: CC1=CC=C(C=C1)C(=O)CN2C3=C(CCCC3)SC2=N [Pifithrin_alpha]
In short: (§1)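 For viability, nuclei in each treated well were divided by nuclei in vehicle wells and the median across plates was taken. Lung cancer cell lines in 1536-well plates were pinned with five library-drug doses (not always all listed) spaced by √10, cultured 5 days without medium change, and imaged at 4× after Hoechst staining, with plates passing only at control CV below 25% and at least one doubling.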

Bemcentinib = compound: Nc1nc(Nc2ccc3c(c2)CC[C@@H](N2CCCC2)CC3)nn1-c1cc2c(nn1)-c1ccccc1CCC2 [Bemcentinib]
In short: as §1

Axitinib = compound: CNC(=O)c1ccccc1Sc1ccc2c(/C=C/c3ccccn3)n[nH]c2c1 [Axitinib]
In short: as §1

Cell Line | relative viability (Axitinib + Dasatinib; first compound 0.005 µM) | relative viability (Axitinib + Dasatinib; first compound 0.01581 µM) | relative viability (Axitinib + Dasatinib; first compound 0.05 µM) | relative viability (Axitinib + Dasatinib; first compound 0.1581 µM) | relative viability (Axitinib + Dasatinib; first compound 0.5 µM) | relative viability (Pifithrin_alpha; 1 µM) | relative viability (Pifithrin_alpha; 3.162 µM) | relative viability (Pifithrin_alpha; 10 µM) | relative viability (Pifithrin_alpha; 31.62 µM) | relative viability (Pifithrin_alpha; 100 µM) | relative viability (Bemcentinib; 0.04 µM) | relative viability (Bemcentinib; 0.1265 µM) | relative viability (Bemcentinib; 0.4 µM) | relative viability (Bemcentinib; 1.265 µM) | relative viability (Bemcentinib; 4 µM) | relative viability (Axitinib; 0.005 µM) | relative viability (Axitinib; 0.01581 µM) | relative viability (Axitinib; 0.05 µM) | relative viability (Axitinib; 0.1581 µM) | relative viability (Axitinib; 0.5 µM)
NCI-H2405 | 0.203 | 0.202 | 0.232 | 0.214 | 0.199 | 0.733 | 0.962 | 0.904 | 0.876 | 0.921 | 0.944 | 1.03 | 1.01 | 1 | 1.08 | 1 | 1.04 | 1.14 | 0.973 | 0.95
NCI-H3122 | 0.881 | 0.819 | 0.895 | 0.724 | 0.735 | 0.982 | 0.999 | 0.965 | 0.745 | 1.02 |  | 1.06 | 0.977 | 1.06 | 1.06 | 0.973 | 0.985 | 1.02 | 1.02 | 1.11
PC-3 [JPC-3] | 1.07 | 1.01 | 1.02 | 1 | 1.01 | 0.73 | 1.03 | 0.934 | 0.949 | 0.932 | 0.978 | 1.06 | 1.12 | 1.05 | 1.06 | 1.08 |  | 1.1 | 1.03 | 1.2
PC-14 | 0.247 | 0.227 | 0.297 | 0.257 | 0.314 | 0.866 | 1.02 | 0.949 | 0.625 | 0.842 | 1.02 | 1.15 | 1.1 | 1.02 | 1.02 | 1.05 | 0.808 | 1.09 | 0.951 | 1.13
RERF-LC-KJ | 0.853 | 0.898 | 0.998 | 0.822 | 0.904 | 0.873 | 0.935 | 0.858 | 0.81 | 0.795 | 1.07 | 1.04 | 1.11 | 1.07 | 1.06 | 1.07 | 0.991 | 1.01 | 0.984 | 1.04
SK-LU-1 | 0.163 | 0.186 | 0.171 | 0.181 | 0.215 | 1.08 | 1.16 | 1.21 | 0.805 | 1.21 | 1.04 | 1.19 | 1.13 | 1.08 | 1.12 | 1.06 | 1.12 | 0.946 | 1.04 | 1.15
SK-MES-1 | 0.42 | 0.435 | 0.446 | 0.382 | 0.622 | 0.893 | 0.927 | 0.901 | 0.726 | 0.815 | 1.03 | 1.09 | 1.07 | 1.11 | 1.11 | 1.03 | 0.998 | 1.01 | 0.976 | 1.06
SW 900 | 0.439 | 0.555 | 0.663 | 0.653 | 0.709 | 0.706 | 0.643 | 0.75 | 0.648 | 0.653 | 0.772 | 0.97 | 0.913 | 0.742 | 0.871 | 0.929 | 0.584 | 0.724 | 0.92 | 1.01
SW 1573 | 0.586 | 0.564 | 0.796 | 0.365 | 0.424 | 1.04 | 1.01 | 1.09 | 0.787 | 0.981 | 0.912 | 1.06 | 1.1 | 0.921 | 0.968 | 0.982 | 1 | 1.09 | 0.867 | 1.08
UMC-11 | 0.447 | 0.442 | 0.448 | 0.444 | 0.54 | 0.965 | 0.949 | 1.04 | 0.907 | 1.23 | 0.982 | 1.13 | 1.08 | 0.871 | 0.995 | 1.03 | 0.943 | 0.956 | 0.935 | 0.899
